Reference: article PMC9311865, “Covalent Allosteric Inhibitors of Akt Generated Using a Click Fragment Approach” (Chemmedchem, 2022)
Entries after “also recorded” stand apart in the source; their conditions may differ. Where two headings read alike, the source gives them in different places.

Experiments:
[1] = system: KU-19-19 cells; assay: CellTiter-Glo Luminescent Cell Viability Assay, KU-19-19; type: cell-based; settings: Homo sapiens, bladder cancer cell line, Akt1 E17K/E49K, mean ± SD, n=3
Experimental: The potential in vitro antiproliferative activity of the synthesised target compounds was investigated against a number of cancer cell lines by the CellTiter‐Glo® Luminescent Cell Viability Assay (from Promega Corporation, USA, catalogue number: G7570). The half‐maximal effective concentrations (EC50) of these compounds were determined against the AN3‐CA, BT‐474, KU‐19‐19, MCF‐7, T‐47D and ZR‐75‐1 cell lines originating from various tissues, i. e., breast, endometrium and bladder (Table S1). […]
The CellTiter-Glo® Luminescent Cell Viability Assay from Promega was used for the cellular assays, performed as explained by Weisner et al.7,8 Information on the cancer cell lines are given in Table S1, the control compounds used in Figure S3 and the results in Table S2.
Table S1. The cell lines used for the cellular assays, including what cancer type they are predominantly found in, and where the cell lines were acquired form.
Cell line Cancer type Acquired from AN3CA Endometrium ATCC (provided by Prof. Jan G. Hengstler at Leibniz-Institut für Arbeitsforschung Dortmund)
KU-19-19 Bladder Deutsche Sammlung von Mikroorganismen und Zellkulturen […]
BT-474 CLS Cell Lines Service (provided by Prof. Jan G. Hengstler at […] Leibniz-Institut für Arbeitsforschung Dortmund)

[2] = system: BT-474 cells; assay: CellTiter-Glo Luminescent Cell Viability Assay, BT-474; type: cell-based; settings: Homo sapiens
[3] = system: MCF-7 cells; assay: CellTiter-Glo Luminescent Cell Viability Assay, MCF-7; type: cell-based; settings: Homo sapiens
[4] = molecular target: T1, Akt2 (Homo sapiens, UniProt P31751); assay: HTRF KinEASE assay, IC50 against Akt2; type: biochemical; settings: wild-type Akt2; mean ± SD, n=3
T1 construct: purchased ProQinase
T1 sequence (P31751 whole entry): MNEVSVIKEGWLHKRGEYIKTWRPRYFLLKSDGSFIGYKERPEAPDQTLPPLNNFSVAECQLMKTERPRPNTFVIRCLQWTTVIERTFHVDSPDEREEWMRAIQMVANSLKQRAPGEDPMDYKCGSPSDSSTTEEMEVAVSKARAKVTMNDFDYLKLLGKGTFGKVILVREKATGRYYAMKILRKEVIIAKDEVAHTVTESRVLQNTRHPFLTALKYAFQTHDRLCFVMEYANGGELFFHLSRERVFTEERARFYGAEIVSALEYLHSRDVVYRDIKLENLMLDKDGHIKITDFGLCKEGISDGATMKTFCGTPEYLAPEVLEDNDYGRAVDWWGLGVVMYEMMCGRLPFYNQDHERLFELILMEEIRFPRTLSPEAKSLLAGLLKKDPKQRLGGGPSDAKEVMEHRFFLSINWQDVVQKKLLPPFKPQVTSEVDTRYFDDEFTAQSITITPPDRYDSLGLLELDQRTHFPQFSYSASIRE
From the text: (§1) The homogeneous time‐resolved fluorescence (HTRF®) KinEASE™ assay by Cisbio was used to determine the half‐maximal inhibitory concentration (IC50) values of the synthesised compounds against Akt1, Akt2 and Akt3 (Table 1).[26]
(§2) The HTRF® KinEASE™ assay (Cisbio) was used to determine the IC 50 values of the synthesised
(§3) al. (Akt2 and Akt3).1,5 The three wild-type Akt isoforms used were acquired from ProQinase.

[5] = molecular target: T2, wild-type Akt1 (Homo sapiens, UniProt P31749); assay: LC-MS identification of covalent binders after co-incubation with Akt1; type: binding; settings: co-incubation with Akt1, Figure S1
T2 construct: made in house
T2 sequence (P31749 whole entry): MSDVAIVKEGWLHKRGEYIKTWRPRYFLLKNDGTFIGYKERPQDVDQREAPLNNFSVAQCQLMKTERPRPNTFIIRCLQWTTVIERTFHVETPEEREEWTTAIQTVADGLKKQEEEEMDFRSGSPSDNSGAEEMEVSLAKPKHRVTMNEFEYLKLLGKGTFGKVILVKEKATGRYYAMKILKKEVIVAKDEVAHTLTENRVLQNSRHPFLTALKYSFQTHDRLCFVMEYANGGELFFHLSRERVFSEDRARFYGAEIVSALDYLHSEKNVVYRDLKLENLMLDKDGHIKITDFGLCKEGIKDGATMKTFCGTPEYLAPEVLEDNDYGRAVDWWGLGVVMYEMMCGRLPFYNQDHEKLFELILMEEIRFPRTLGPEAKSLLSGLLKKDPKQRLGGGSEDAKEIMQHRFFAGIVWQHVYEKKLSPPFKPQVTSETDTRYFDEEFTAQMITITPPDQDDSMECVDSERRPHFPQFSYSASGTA
From the text: 2. Evaluation results … 4
4. Molecular Modelling … 57
indicated covalent binding.

[6] = system: AN3CA cells; assay: CellTiter-Glo Luminescent Cell Viability Assay, AN3CA; type: cell-based; settings: Homo sapiens, AN3-CA, read-out: EC50 AN3CA
[7] = system: T47D cells; assay: CellTiter-Glo Luminescent Cell Viability Assay, T47D; type: cell-based; settings: Homo sapiens, breast cancer cell line, mean ± SD, n=3
[8] = system: ZR-75-1 cells; assay: CellTiter-Glo Luminescent Cell Viability Assay, ZR-75-1; type: cell-based; settings: Homo sapiens
[9] = molecular target: T3, Akt1 (Homo sapiens, UniProt P31749); assay: HTRF KinEASE assay, IC50 against Akt1
T3 sequence (P31749 whole entry): as above
From the text: as §1, §2, §3

[10] = molecular target: Akt3 (Homo sapiens, UniProt Q9Y243); assay: HTRF KinEASE assay, IC50 against Akt3
Sequence of Akt3 (Q9Y243 whole entry): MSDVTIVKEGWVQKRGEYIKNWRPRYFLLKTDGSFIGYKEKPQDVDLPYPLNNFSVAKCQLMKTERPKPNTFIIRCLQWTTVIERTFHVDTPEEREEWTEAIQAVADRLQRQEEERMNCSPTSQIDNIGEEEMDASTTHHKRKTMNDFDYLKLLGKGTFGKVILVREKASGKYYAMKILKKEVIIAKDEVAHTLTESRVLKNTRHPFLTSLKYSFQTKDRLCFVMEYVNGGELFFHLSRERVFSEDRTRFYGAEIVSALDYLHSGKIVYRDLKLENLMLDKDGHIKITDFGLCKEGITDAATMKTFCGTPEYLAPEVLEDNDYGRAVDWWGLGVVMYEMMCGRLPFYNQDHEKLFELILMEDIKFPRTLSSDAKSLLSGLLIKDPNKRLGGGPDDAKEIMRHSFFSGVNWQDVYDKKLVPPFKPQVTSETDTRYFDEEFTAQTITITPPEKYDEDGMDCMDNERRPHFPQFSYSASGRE
From the text: as §1, §2, §3

[11] = molecular target: T3, Akt1; assay: Kinetic analysis with HTRF KinEASE (time-dependent IC50), kinetic parameters of inactivation; type: biochemical; parameters: purchased ProQinase; settings: mean ± SD, n=3; for Ki: inhibition constant of inactivation
From the text: The kinetic parameters of inactivation, namely the inhibition constant (K I) and the rate constant of enzyme inactivation (k inact), are therefore preferentially used to describe irreversible inhibitors.[28] K I is defined as the concentration of inhibitor required for half of the maximum potential rate of covalent bond formation, while k inact is defined as the maximum potential rate of covalent bond formation.[29] The ratio of k inact over K I, k inact/K I, accounts for both the potency of the inhibitor (K I) and the maximum potential rate of covalent bond formation (k inact) and thus represents the second‐order rate constant describing the efficiency of covalent complex formation.[29] Using a protocol published by Krippendorff et al., K I and k inact can be directly estimated from time‐dependent IC50 determinations by kinetic analysis with HTRF® KinEASE™.[28]
Using a protocol published by Krippendorff et al., KI, kinact and kinact/KI could be directly
estimated from time-dependent IC50 determinations by kinetic analysis with HTRF® KinEASE™,

[12] = BT-474, breast cancer cell line, mean ± SD, n=3, read-out: EC50 BT‐474
[13] = MCF7, breast cancer cell line, mean ± SD, n=3, read-out: EC50 MCF‐7
[14] = endometrium cancer cell line, mean ± SD, n=3
[15] = ZR-75-1, breast cancer cell line, mean ± SD, n=3, read-out: EC50 ZR‐75‐1
[16] = IC50 Akt1, wild-type Akt1, mean ± SD, n=3
[17] = IC50, Akt1, repeated in Table 2 for comparison, mean ± SD, n=3

Compound	EC50 [1] [µM]	EC50 [2, 12] [µM]	EC50 [3, 13] [µM]	IC50 [4] [µM]	covalent binding to Akt1 (mass increase by LC-MS) [5]	EC50 [6, 14] [µM]	EC50 [7] [µM]	EC50 [8, 15] [µM]	IC50 [9, 16] [µM]	IC50 [10] [µM]	melting point [°C]	other results
NC1(C(=O)N[C@@H](CCO)c2ccc(Cl)cc2)CCN(c2ncnc3[nH]ccc23)CC1 [Capivasertib, reference compound]	3.06 ± 2.33	1.6 ± 0.45	2.65 ± 0.555	–	–	–	–	–	–	–	–	–
C=CC(=O)Nc1ccc2[nH]c(=O)n(C3CCN(Cc4ccc(-c5nc6cc[nH]c(=O)c6cc5-c5ccccc5)cc4)CC3)c2c1 [Compound 2, borussertib, reference compound]	7.82 ± 3.27	–	–	–	–	–	–	–	–	–	–	EC50 ([2]; BT-474, read-out: EC50 BT‐474): 0.373 ± 0.054 µM; EC50 ([3]; MCF7, read-out: EC50 MCF‐7): 0.277 ± 0.09 µM
C=CC(=O)Nc1ccccc1-c1cn(C2CCN(Cc3ccc(-c4nc5ccccn5c4-c4ccccc4)cc3)CC2)nn1 [Compound 4, N ‐[2‐(1‐{1‐[4‐(3‐Phenylimidazo[1,2‐a]pyridin‐2‐yl)benzyl]piperidin‐4‐yl}‐1H‐1,2,3‐triazol‐4‐yl)phenyl]acrylamide]	29.4 ± 9.59	15.4 ± 6.13	8.55 ± 1.25	> 20	partial covalent binders; also recorded: partial labelling	12.3 ± 3.48	15.2 ± 3.25	1.75 ± 0.428	0.925 ± 0.277	> 20	–	–
C=CC(=O)Nc1ccc(-c2cn(C3CCN(Cc4ccc(-c5nc6ccccn6c5-c5ccccc5)cc4)CC3)nn2)cc1 [Compound 5, N ‐[4‐(1‐{1‐[4‐(3‐Phenylimidazo[1,2‐a]pyridin‐2‐yl)benzyl]piperidin‐4‐yl}‐1H‐1,2,3‐triazol‐4‐yl)phenyl]acrylamide]	9.83 ± 1.6	6.99 ± 2.37	3.39 ± 0.348	> 20	no indication of covalent binding	5.44 ± 1.56	3.79 ± 1.94	3.54 ± 0.44	2.88 ± 1.73	> 20	–	–
C=CC(=O)Nc1ccccc1-c1cn(C2CCN(Cc3ccc(-c4nc5ccccn5c4-c4ccccc4C)cc3)CC2)nn1 [Compound 6, N ‐{2‐[1‐(1‐{4‐[3‐(o‐Tolyl)imidazo[1,2‐a]pyridin‐2‐yl]benzyl}piperidin‐4‐yl)‐1H‐1,2,3‐triazol‐4‐yl]phenyl}acrylamide]	22 ± 4.98	> 30	18.2 ± 2.56	> 20	–	14.7 ± 2.35	> 30	15.5 ± 1.86	> 20	> 20	128 to 130	–
C=CC(=O)Nc1cccc(-c2cn(C3CCN(Cc4ccc(-c5nc6ccccn6c5-c5ccccc5C)cc4)CC3)nn2)c1 [Compound 7, N ‐{3‐[1‐(1‐{4‐[3‐(o‐Tolyl)imidazo[1,2‐a]pyridin‐2‐yl]benzyl}piperidin‐4‐yl)‐1H‐1,2,3‐triazol‐4‐yl]phenyl}acrylamide]	7.69 ± 0.664	9.91 ± 4.14	4.38 ± 1.59	> 20	–	5.71 ± 0.706	4.86 ± 0.627	4.19 ± 1.11	> 20	> 20	124 to 126	–
C=CC(=O)Nc1ccc(-c2cn(C3CCN(Cc4ccc(-c5nc6ccccn6c5-c5ccccc5C)cc4)CC3)nn2)cc1 [Compound 8, N ‐{4‐[1‐(1‐{4‐[3‐(o‐Tolyl)imidazo[1,2‐a]pyridin‐2‐yl]benzyl}piperidin‐4‐yl)‐1H‐1,2,3‐triazol‐4‐yl]phenyl}acrylamide]	7.63 ± 0.636	7.39 ± 2.34	4.3 ± 1.18	> 20	–	5.87 ± 0.403	4.52 ± 1.59	5.32 ± 0.426	> 20	> 20	169 to 170	–
C=CC(=O)Nc1cccc(-c2cn(C3CCN(Cc4ccc(-c5nc6ccccn6c5-c5cccc(C)c5)cc4)CC3)nn2)c1 [Compound 9, N ‐{3‐[1‐(1‐{4‐[3‐(m‐Tolyl)imidazo[1,2‐a]pyridin‐2‐yl]benzyl}piperidin‐4‐yl)‐1H‐1,2,3‐triazol‐4‐yl]phenyl}acrylamide]	9.45 ± 1.04	11.2 ± 4.73	3.61 ± 0.804	> 20	–	5.13 ± 1.28	4.59 ± 1.31	4.2 ± 0.817	> 20	> 20	130 to 132	IC50 Akt1 ([9]; wild-type Akt1, mean ± SD, n=3): inactive
C=CC(=O)Nc1cccc(-c2cn(C3CCN(Cc4ccc(-c5nc6ccc(C)cn6c5-c5ccccc5)cc4)CC3)nn2)c1 [Compound 10, N ‐[3‐(1‐{1‐[4‐(6‐Methyl‐3‐phenylimidazo[1,2‐a]pyridin‐2‐yl)benzyl]piperidin‐4‐yl}‐1H‐1,2,3‐triazol‐4‐yl)phenyl]acrylamide]	17.3 ± 7.97	22.8 ± 3	6.73 ± 3.48	> 20	partial covalent binders	5.61 ± 2.85	9.18 ± 4.72	3.32 ± 3.11	4.63 ± 0.244	> 20	217 to 219	–
C=CC(=O)Nc1ccc2[nH]c(=O)n(C3CCN(Cc4ccc(-c5nc6ccccn6c5-c5ccccc5)cc4)CC3)c2c1 [Compound 11, N ‐(2‐Oxo‐3‐{1‐[4‐(3‐phenylimidazo[1,2‐a]pyridin‐2‐yl)benzyl]piperidin‐4‐yl}‐2,3‐dihydro‐1H‐benzo[d]imidazol‐5‐yl)acrylamide]	12.8 ± 1.61	0.971 ± 0.301	1.1 ± 0.689	2.56 ± 0.578	covalent binders	1.03 ± 0.21	0.364 ± 0.087	0.081 ± 0.011	0.034 ± 0.02	> 20	221 to 223	Ki [11]: 0.0272 ± 0.0026 µM; k inact [11]: 0.069 ± 0.004 min⁻¹; k inact/K I [11]: 43000 ± 6000 M⁻¹ s⁻¹; IC50 [9, 17]: 0.0341 ± 0.0204 µM
C=CC(=O)Nc1cc2c(cc1Cl)[nH]c(=O)n2C1CCN(Cc2ccc(-c3nc4ccccn4c3-c3ccccc3)cc2)CC1 [Compound 12, N ‐(6‐Chloro‐2‐oxo‐3‐{1‐[4‐(3‐phenylimidazo[1,2‐a]pyridin‐2‐yl)benzyl]piperidin‐4‐yl}‐2,3‐dihydro‐1H‐benzo[d]imidazol‐5‐yl)acrylamide]	23.5 ± 6.7	3.76 ± 1.38	4.23 ± 2.4	5.59 ± 1.52	covalent binders	3.57 ± 1.22	1.5 ± 0.903	0.227 ± 0.057	0.029 ± 0.005	> 20	80 to 82	Ki [11]: 0.0247 ± 0.0018 µM; k inact [11]: 0.081 ± 0.008 min⁻¹; k inact/K I [11]: 55000 ± 9000 M⁻¹ s⁻¹; IC50 [9, 17]: 0.0286 ± 0.0053 µM
C=CC(=O)Nc1cccc(-c2cn(C3CCN(Cc4ccc(-c5nc6cc[nH]c(=O)c6cc5-c5ccccc5)cc4)CC3)nn2)c1 [Compound 13, N ‐[3‐(1‐{1‐[4‐(5‐Oxo‐3‐phenyl‐5,6‐dihydro‐1,6‐naphthyridin‐2‐yl)benzyl]piperidin‐4‐yl}‐1H‐1,2,3‐triazol‐4‐yl)phenyl]acrylamide]	5.65 ± 1.49	0.469 ± 0.162	0.329 ± 0.225	–	covalent binders	0.425 ± 0.058	0.088 ± 0.031	0.02 ± 0.007	0.007 ± 0.0018	–	252 to 254	Ki [11]: 0.0105 ± 0.0008 µM; k inact [11]: 0.042 ± 0.012 min⁻¹; k inact/K I [11]: 66000 ± 15000 M⁻¹ s⁻¹; IC50 [9, 17]: 0.007 ± 0.0018 µM; decrease in activity against Akt1 compared to control compound 2 ([9]; IC50 ratio to borussertib (2)): less than 10 fold
CC(C)NC[C@@H](C(=O)N1CCN(c2ncnc3c2[C@H](C)C[C@H]3O)CC1)c1ccc(Cl)cc1 [Ipatasertib, reference compound]	4.23 ± 3.39	–	–	–	–	–	0.447 ± 0.002	–	–	–	–	EC50 [6]: 0.925 ± 0.457 µM; EC50 ([2]; BT-474, read-out: EC50 BT‐474): 2.37 ± 0.745 µM; EC50 ([3]; MCF7, read-out: EC50 MCF‐7): 5.04 ± 1.83 µM; EC50 ([8]; ZR-75-1, read-out: EC50 ZR‐75‐1): 0.219 ± 0.083 µM
NC1(c2ccc(-c3nc4ccn5c(=O)[nH]nc5c4cc3-c3ccccc3)cc2)CCC1 [MK‐2206, reference compound]	5.53 ± 0.927	1.68 ± 0.316	–	–	–	–	–	0.063 ± 0.021	–	–	–	–
